The assay has as its system CD8F1 mice, subcutaneous mammary adenocarcinoma, T/C%. Put plainly: NCI In Vivo Anticancer Drug Screen. Data for tumor model Mammary Adenocarcinoma CD8F1 (subcutaneous) in CD8F1. The conditions noted are these: higher = larger tumour. In a few lines: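 Ratio of treated to vehicle-control outcome, based on either survival or tumor size, in mice bearing transplantable tumors given the test compound.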

Setting [1] is: endpoint: median tumor weight change, dose: 62.5 mg/kg/injection, schedule: Q01DX001 (ip), vehicle: saline with Tween-80.
[2] abbreviates: endpoint: median tumor weight change, dose: 250.0 mg/kg/injection, schedule: Q01DX001 (ip), vehicle: saline with Tween-80.
[3] abbreviates: endpoint: median tumor weight change, dose: 500.0 mg/kg/injection, schedule: Q01DX001 (ip), vehicle: saline with Tween-80.
The mark [4] stands for this setting: endpoint: median tumor weight (est.), dose: 25.0 mg/kg/injection, schedule: Q07DX005 (ip), vehicle: saline with Tween-80.
[5] abbreviates: endpoint: median tumor weight change, dose: 31.25 mg/kg/injection, schedule: Q01DX001 (ip), vehicle: saline with Tween-80.
[6] abbreviates: endpoint: median tumor weight change, dose: 125.0 mg/kg/injection, schedule: Q01DX001 (ip), vehicle: saline with Tween-80.

The values below come from PubChem BioAssay AID220 (DTP/NCI, 2004).

Several values for one entry are separate records, joined by “and”; a condition that tells them apart may be missing. Equal entries are not always repeated. Results filed as inconclusive are left out.

On to `CC(C)CC(NC(=O)CF)C(=O)O` (stereo not given), for which the T/C (endpoint: median tumor weight (est.), dose: 0.62 mg/kg/injection, schedule: Q07DX005 (ip), vehicle: saline) was 81 % of control; the T/C (endpoint: median tumor weight (est.), dose: 2.5 mg/kg/injection, schedule: Q07DX005 (ip), vehicle: saline) is 39 % of control; the T/C (endpoint: median tumor weight (est.), dose: 5.0 mg/kg/injection, schedule: Q07DX005 (ip), vehicle: saline) is 99 % of control; the T/C (endpoint: median tumor weight (est.), dose: 10.0 mg/kg/injection, schedule: Q07DX005 (ip), vehicle: saline) was 41 % of control.
For the compound `CC(=O)OC(C)C1C2=C(C(=O)CC1(C)O)C(=O)c1c(ccc(-c3ccc4c(c3O)C(=O)C3=C(C4=O)C(C(C)OC(C)=O)C(C)(O)CC3=O)c1O)C2=O` (stereo not given), the T/C by setting is: (endpoint: median tumor weight change, dose: 3.75 mg/kg/injection, schedule: Q01DX001 (ip), vehicle: saline with Tween-80) 105 % of control; (endpoint: median tumor weight change, dose: 7.5 mg/kg/injection, schedule: Q01DX001 (ip), vehicle: saline with Tween-80) 42 % of control; (endpoint: median tumor weight change, dose: 15.0 mg/kg/injection, schedule: Q01DX001 (ip), vehicle: saline with Tween-80) 88 % of control; (endpoint: median tumor weight change, dose: 30.0 mg/kg/injection, schedule: Q01DX001 (ip), vehicle: saline with Tween-80) 83 % of control.
Turning to `C[C@]12CC[C@H](O)CC1=CC[C@@H]1[C@@H]2CC[C@]2(C)C(=O)CC[C@@H]12`, the T/C runs as follows: under setting [1], 115 % of control; under setting [2], 104 % of control; under setting [3], 90 % of control; (endpoint: median tumor weight change, dose: 1000.0 mg/kg/injection, schedule: Q01DX001 (ip), vehicle: saline with Tween-80) 70 % of control.
For `CC(=O)[C@]1(O)Cc2c(O)c3c(c(O)c2[C@@H](OC2CC(N)C(O)C(C)O2)C1)C(=O)c1c(O)cccc1C3=O` (stereo not given in full), the T/C (endpoint: median tumor weight (est.), dose: 0.6 mg/kg/injection, schedule: Q07DX005 (ip), vehicle: water) was 96 % of control.
As to `OCC(O)C(O)C(O)C(O)CO` (stereo not given), the T/C was 20 % of control (endpoint: median tumor weight change, dose: 75.0 mg/kg/injection, schedule: Q01DX001 (ip), vehicle: saline); 40 % of control (endpoint: median tumor weight change, dose: 150.0 mg/kg/injection, schedule: Q01DX001 (ip), vehicle: saline); 39 % of control (endpoint: median tumor weight change, dose: 300.0 mg/kg/injection, schedule: Q01DX001 (ip), vehicle: saline); 32 % of control (endpoint: median tumor weight change, dose: 600.0 mg/kg/injection, schedule: Q01DX001 (ip), vehicle: saline); 45 % of control (endpoint: median tumor weight change, dose: 1200.0 mg/kg/injection, schedule: Q01DX001 (ip), vehicle: saline).
Turning to `O=C(Oc1ccccc1)c1cc(O)c(O)c(O)c1`, the T/C is, setting by setting: (endpoint: median tumor weight change, dose: 150.0 mg/kg/injection, schedule: Q01DX001 (ip), vehicle: suspension in saline) 98 % of control; (endpoint: median tumor weight change, dose: 300.0 mg/kg/injection, schedule: Q01DX001 (ip), vehicle: suspension in saline) 111 % of control.
For `CC(=O)Oc1ccc[nH]c1=O`, the T/C is, setting by setting: under setting [4], 68 % of control; (endpoint: median tumor weight (est.), dose: 50.0 mg/kg/injection, schedule: Q07DX005 (ip), vehicle: saline with Tween-80) 88 % of control; (endpoint: median tumor weight (est.), dose: 100.0 mg/kg/injection, schedule: Q07DX005 (ip), vehicle: saline with Tween-80) 93 % of control; (endpoint: median tumor weight (est.), dose: 200.0 mg/kg/injection, schedule: Q07DX005 (ip), vehicle: saline with Tween-80) 102 % of control; (endpoint: median tumor weight (est.), dose: 400.0 mg/kg/injection, schedule: Q07DX005 (ip), vehicle: saline with Tween-80) 118 % of control; (endpoint: median tumor weight (est.), dose: 800.0 mg/kg/injection, schedule: Q07DX005 (ip), vehicle: saline with Tween-80) 54 % of control.
On to `CC(C)CCCCCCCCCCCCC(=O)NCC(=O)NC1C(O)C(O)C(Nc2ncnc3nc[nH]c23)OC1C(O)CO` (stereo not given), for which the T/C is 169 % of control (endpoint: median tumor weight (est.), dose: 1.0 mg/kg/injection, schedule: Q07DX005 (ip), vehicle: Klucel (hydroxypropylcellulose) (HPC)); 51 % of control and 76 % of control (endpoint: median tumor weight (est.), dose: 2.0 mg/kg/injection, schedule: Q07DX005 (ip), vehicle: Klucel (hydroxypropylcellulose) (HPC)).
As for `Clc1ccc(C2SC=Cc3ccccc32)cc1` (stereo not given), the T/C (endpoint: median tumor weight change, dose: 62.0 mg/kg/injection, schedule: Q01DX001 (ip), vehicle: Klucel (hydroxypropylcellulose) (HPC)) was 88 % of control; the T/C (endpoint: median tumor weight change, dose: 250.0 mg/kg/injection, schedule: Q01DX001 (ip), vehicle: Klucel (hydroxypropylcellulose) (HPC)) is 50 % of control and 54 % of control and 58 % of control.
As to `O=C(NC/C(Cl)=C/Cl)Oc1cccc2ccccc12`, the T/C by setting is: (endpoint: mean tumor weight, dose: 0.78 mg/kg/injection, schedule: Q07DX004 (ip), vehicle: saline) 78 % of control; (endpoint: mean tumor weight, dose: 1.56 mg/kg/injection, schedule: Q07DX004 (ip), vehicle: saline) 91 % of control; (endpoint: mean tumor weight, dose: 3.12 mg/kg/injection, schedule: Q07DX004 (ip), vehicle: saline) 112 % of control; (endpoint: mean tumor weight, dose: 6.25 mg/kg/injection, schedule: Q07DX004 (ip), vehicle: saline) 72 % of control; (endpoint: mean tumor weight, dose: 12.5 mg/kg/injection, schedule: Q07DX004 (ip), vehicle: saline) 58 % of control.
For the compound `CO[C@@H]1[C@H](O)CC[C@]2(CO2)[C@H]1[C@@]1(C)O[C@@H]1CC=C(C)C`, the T/C runs as follows: under setting [5], 113 % of control; under setting [1], 100 % of control; under setting [6], 106 % of control; under setting [2], 110 % of control.
Regarding `Cc1cc(NCCCCCCCNc2cc(C)nc3cc(N)ccc23)c2ccc(N)cc2n1`, the T/C (endpoint: median tumor weight (est.), dose: 3.12 mg/kg/injection, schedule: Q07DX005 (ip), vehicle: saline with Tween-80) is 89 % of control; the T/C (endpoint: median tumor weight (est.), dose: 6.25 mg/kg/injection, schedule: Q07DX005 (ip), vehicle: saline with Tween-80) was 111 % of control; the T/C (endpoint: median tumor weight (est.), dose: 12.5 mg/kg/injection, schedule: Q07DX005 (ip), vehicle: saline with Tween-80) was 79 % of control; the T/C under setting [4] is 26 % of control; the T/C under setting [5] is 28 % of control and 45 % of control; the T/C under setting [1] is 27 % of control.
Consider `CC1=C(/C=C/C(C)=C/C=C/C(C)=C/C=O)C(C)(C)CCC1`, for which the T/C is 104 % of control under setting [1] and 74 % of control under setting [6].
Take `CN(C)N=Nc1cccc(C(N)=O)c1`: the T/C by setting is: (endpoint: median tumor weight (est.), dose: 20.0 mg/kg/injection, schedule: Q07DX005 (ip), vehicle: Klucel (hydroxypropylcellulose) (HPC)) 80 % of control; (endpoint: median tumor weight (est.), dose: 160.0 mg/kg/injection, schedule: Q07DX005 (ip), vehicle: Klucel (hydroxypropylcellulose) (HPC)) 54 % of control.
As to `O=C(NP(=O)(N1CC1)N1CC1)c1cc(I)ccc1I`, the T/C is 68 % of control (endpoint: median tumor weight (est.), dose: 16.0 mg/kg/injection, schedule: Q07DX005 (ip), vehicle: saline with Tween-80); 77 % of control (endpoint: median tumor weight (est.), dose: 32.0 mg/kg/injection, schedule: Q07DX005 (ip), vehicle: saline with Tween-80); 49 % of control (endpoint: median tumor weight (est.), dose: 64.0 mg/kg/injection, schedule: Q07DX005 (ip), vehicle: saline with Tween-80); 6 % of control (endpoint: median tumor weight (est.), dose: 128.0 mg/kg/injection, schedule: Q07DX005 (ip), vehicle: saline with Tween-80).
On to `COC(=O)C(N)Cc1ccc(O)c(O)c1` (stereo not given), for which the T/C (endpoint: median tumor weight (est.), dose: 100.0 mg/kg/injection, schedule: Q07DX005 (ip), vehicle: saline) was 195 % of control; the T/C (endpoint: median tumor weight (est.), dose: 400.0 mg/kg/injection, schedule: Q07DX005 (ip), vehicle: saline) was 112 % of control; the T/C (endpoint: median tumor weight (est.), dose: 800.0 mg/kg/injection, schedule: Q07DX005 (ip), vehicle: saline) was 108 % of control.
Turning to `O=C(O)C(CSC(c1ccccc1)(c1ccccc1)c1ccccc1)N=Cc1cccs1` (stereo not given), the T/C (endpoint: median tumor weight change, dose: 62.5 mg/kg/injection, schedule: Q01DX001 (ip), vehicle: suspension in saline) is 112 % of control; the T/C (endpoint: median tumor weight change, dose: 125.0 mg/kg/injection, schedule: Q01DX001 (ip), vehicle: suspension in saline) is 111 % of control; the T/C (endpoint: median tumor weight change, dose: 250.0 mg/kg/injection, schedule: Q01DX001 (ip), vehicle: saline) was 64 % of control; the T/C (endpoint: median tumor weight change, dose: 250.0 mg/kg/injection, schedule: Q01DX001 (ip), vehicle: suspension in saline) is 95 % of control.
Regarding `Cc1ccc(N)c(N)c1`, the T/C by setting is: under setting [6], 65 % of control; under setting [2], 48 % of control; under setting [3], 75 % of control.
On to `O=c1ncccn1[C@@H]1O[C@H](CO)[C@H](O)C1O` (stereo not given in full), for which the T/C reads like this: (endpoint: median tumor weight change, dose: 1000.0 mg/kg/injection, schedule: Q01DX001 (ip), vehicle: saline) 78 % of control and 89 % of control; (endpoint: median tumor weight change, dose: 2000.0 mg/kg/injection, schedule: Q01DX001 (ip), vehicle: saline) 95 % of control and 103 % of control.
